Assay results reported in PMC6797481, “Identification of an allosteric binding site on the human glycine transporter, GlyT2, for bioactive lipid analgesics” (eLife, 2019).
Where a chain is given by its changes, count along the chain named.

Assays:
GlyT2 W563L mutant = biological target: T1, GlyT2 W563L mutant (Homo sapiens, UniProt Q9Y345, W563L); assay: Glycine transport currents, two electrode voltage clamp, oocytes expressing GlyT2 W563L; assay type: cell-based; settings: for % Max. inhibition: mean ± SEM
T1 construct: expressed in transfected cells; host or cells: Xenopus laevis oocytes (cRNA injection)
T1 sequence (Q9Y345 1-797 W563L): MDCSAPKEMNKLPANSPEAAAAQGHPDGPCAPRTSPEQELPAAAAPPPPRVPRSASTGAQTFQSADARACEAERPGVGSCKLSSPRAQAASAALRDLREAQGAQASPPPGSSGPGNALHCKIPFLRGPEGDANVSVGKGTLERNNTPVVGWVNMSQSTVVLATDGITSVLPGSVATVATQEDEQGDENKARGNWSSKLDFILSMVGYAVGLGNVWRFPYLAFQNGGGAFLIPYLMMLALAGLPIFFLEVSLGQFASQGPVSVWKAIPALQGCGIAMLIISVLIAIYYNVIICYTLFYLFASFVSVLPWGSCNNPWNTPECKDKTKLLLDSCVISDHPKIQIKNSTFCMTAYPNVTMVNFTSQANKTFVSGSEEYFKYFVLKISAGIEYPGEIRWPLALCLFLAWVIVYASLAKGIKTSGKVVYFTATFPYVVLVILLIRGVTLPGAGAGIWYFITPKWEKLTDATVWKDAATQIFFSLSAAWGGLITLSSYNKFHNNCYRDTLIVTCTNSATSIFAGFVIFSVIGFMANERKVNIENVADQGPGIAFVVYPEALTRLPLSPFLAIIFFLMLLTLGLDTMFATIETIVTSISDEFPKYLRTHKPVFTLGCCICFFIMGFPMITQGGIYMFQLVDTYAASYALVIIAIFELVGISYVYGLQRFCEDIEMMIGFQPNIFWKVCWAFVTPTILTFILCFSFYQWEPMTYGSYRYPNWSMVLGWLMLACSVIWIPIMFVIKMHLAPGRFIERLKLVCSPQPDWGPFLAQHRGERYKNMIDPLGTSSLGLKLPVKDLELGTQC
Method: (§1) Glycine was first applied to establish maximal transport current.
(§2) Compounds were tested for inhibition of glycine transport on Xenopus laevis oocytes expressing mutant GlyT1 and GlyT2 transporters. n values are in brackets, with measurements taken from at least 2 batches of oocytes.

GlyT2 Y550L mutant = biological target: T2, GlyT2 Y550L mutant (Homo sapiens, UniProt Q9Y345, Y550L); assay: Glycine transport currents, two electrode voltage clamp, oocytes expressing GlyT2 Y550L; assay type: cell-based; settings: for % Max. inhibition: mean ± SEM
T2 construct: expressed in transfected cells; host or cells: Xenopus laevis oocytes (cRNA injection)
T2 sequence (Q9Y345 1-797 Y550L): T1 sequence (Q9Y345 1-797 W563L) with Y550L, L563W
Method: as §1, §2

GlyT1 WT = tested on: GlyT1 WT; set-up: method as in earlier work; settings: previously published; cited from earlier work
GlyT1 L425I mutant = biological target: T3, GlyT1 L425I mutant (Homo sapiens, UniProt P48067, L439I); assay: Glycine transport currents, two electrode voltage clamp, oocytes expressing GlyT1 L425I; assay type: cell-based; settings: for % Max. inhibition: mean ± SEM; for sensitivity of GlyT1 L425I to inhibition: similar to the WT GlyT1 response
T3 construct: expressed in transfected cells; host or cells: Xenopus laevis oocytes (cRNA injection)
T3 sequence (P48067 1-652 isoform P48067-3 L385I): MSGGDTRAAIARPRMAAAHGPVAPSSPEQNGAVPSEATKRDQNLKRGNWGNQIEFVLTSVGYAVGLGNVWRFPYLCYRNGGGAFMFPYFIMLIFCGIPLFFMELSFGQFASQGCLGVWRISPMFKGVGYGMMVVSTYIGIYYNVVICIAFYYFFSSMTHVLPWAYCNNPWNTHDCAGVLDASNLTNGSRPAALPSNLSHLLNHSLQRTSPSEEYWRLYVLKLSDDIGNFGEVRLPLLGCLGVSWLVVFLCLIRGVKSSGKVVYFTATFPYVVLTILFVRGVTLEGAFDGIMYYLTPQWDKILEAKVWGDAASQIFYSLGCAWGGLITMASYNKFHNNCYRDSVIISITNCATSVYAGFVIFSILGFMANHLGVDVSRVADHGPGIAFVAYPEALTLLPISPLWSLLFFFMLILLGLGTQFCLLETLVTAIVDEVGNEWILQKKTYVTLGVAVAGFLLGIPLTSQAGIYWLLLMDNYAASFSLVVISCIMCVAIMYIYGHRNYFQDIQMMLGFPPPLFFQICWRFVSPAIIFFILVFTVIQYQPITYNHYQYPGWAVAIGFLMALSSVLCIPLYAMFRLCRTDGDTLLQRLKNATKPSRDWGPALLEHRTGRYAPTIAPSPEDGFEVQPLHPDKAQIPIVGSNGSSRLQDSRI
Method: as §1, §2

[1] = GlyT2 W563L, greater than maximum concentration applied (footnote a)
[2] = GlyT2 Y550L, greater than maximum concentration applied (footnote a)
[3] = GlyT1 L425I, greater than maximum concentration applied (footnote a)

| Compound | IC50 (GlyT2 W563L mutant; [1]) [nM] | % Max. inhibition (GlyT2 W563L mutant; GlyT2 W563L) | IC50 (GlyT2 Y550L mutant; [2]) [nM] | % Max. inhibition (GlyT2 Y550L mutant; GlyT2 Y550L) | IC50 (GlyT1 WT) [nM] | IC50 (GlyT2 W563L mutant; GlyT2 W563L, mean (95% CI)) [nM] | % Max. inhibition (GlyT1 L425I mutant; GlyT1 L425I) | IC50 (GlyT2 Y550L mutant; GlyT2 Y550L, mean (95% CI)) [nM] | IC50 (GlyT1 L425I mutant; [3]) [nM] | further results |
| --- | --- | --- | --- | --- | --- | --- | --- | --- | --- | --- |
| oleoyl d-Lysine | > 3000 | 42.1 ± 7.7 (p=0.0017) % | > 3000 | 38.4 ± 10.0 (p=0.0010) % | > 3000 | – | – | – | – | – |
| CCCCCCCC/C=C\CCCCCCCC(=O)N[C@@H](CCCCN)C(=O)O [oleoyl l-Lysine] | – | 73.5 ± 3.3 (p=0.1479) % | – | 48.2 ± 4.1 (p=0.0001) % | > 3000 | 175 | 95.6% | 210 | – | fold lower apparent affinity at GlyT1 L425I (GlyT1 L425I mutant; GlyT1 L425I compared with WT GlyT2): 9 fold; IC50 (GlyT1 L425I mutant; GlyT1 L425I, mean (95% CI)): 236 nM |
| CCCCCCCC/C=C\CCCCCCCC(=O)N[C@@H](Cc1c[nH]c2ccccc12)C(=O)O [oleoyl l-Tryptophan] | > 3000 | 42.9 ± 2.6 (p=0.0001) % | > 3000 | 16.5 ± 1.7 (p=0.0001) % | > 10000 | – | 35.7 ± 13.2 (p=0.2787) % | – | > 3000 | sensitivity of GlyT1 L425I to inhibition (GlyT1 L425I mutant): insensitive |
| CCCCC/C=C\C/C=C\C/C=C\C/C=C\CCCC(=O)NCC(=O)O [N-arachidonyl Glycine, reference compound] | – | – | – | – | > 10000 | – | 31.6 ± 6.9 (p=0.0361) % | – | > 10000 | – |
| CCCCCCCC/C=C\CCCCCCCC(=O)N[C@H](C(=O)O)C(C)C [oleoyl l-Valine] | – | – | – | 57.0 ± 5.1 (p=0.0028) % | > 30000 | 7510 | – | 2930 | – | % Max. inhibition (% inhibition at the highest concentration of inhibitor used) (GlyT2 W563L mutant; GlyT2 W563L, footnote b): 56.3 ± 9.1^b (p=0.5737) % |
| CCCCCCCC/C=C\CCCCCCCC(=O)NCC(=O)O [N-oleoyl Glycine, reference compound] | – | 46.6 ± 4.0 (p=0.0449) % | – | 34.8 ± 9.1 (p=0.0011) % | > 10000 | 755 | – | 829 | > 10000 | % Max. inhibition (% inhibition at the highest concentration of inhibitor used) (GlyT1 L425I mutant; GlyT1 L425I, footnote b): 28.5 ± 5.3^b (p=0.0564) %; sensitivity of GlyT1 L425I to inhibition (GlyT1 L425I mutant): insensitive |
| NCC(=O)O [Glycine] | – | – | – | – | – | – | – | – | – | EC50 (GlyT2 W563L mutant; glycine transport, GlyT2 W563L (TM8)): 4900 ± 800 nM; EC50 (GlyT1 L425I mutant; glycine transport, GlyT1 mutant printed I425L (EL4)): 45100 ± 9600 nM; EC50 (GlyT2 Y550L mutant; glycine transport, GlyT2 Y550L (EL4)): 62200 ± 11400 nM |
| CCCCCCCC/C=C\CCCCCCCC(=O)N[C@@H](CC(=O)O)C(=O)O [oleoyl l-Aspartate] | – | 74.9 ± 7.5 (p=0.9965) % | > 3000 | – | > 10000 | 1160 | – | – | – | % Max. inhibition (% inhibition at the highest concentration of inhibitor used) (GlyT2 Y550L mutant; GlyT2 Y550L, footnote b): 7.0 ± 0.8^b (p=0.0001) % |
| CCCCCCCC/C=C\CCCCCCCC(=O)O[C@H](CC(=O)[O-])C[N+](C)(C)C [oleoyl L-Carnitine, reference compound] | > 3000 | 34.7 ± 3.2 (p=0.0001) % | > 3000 | 17.3 ± 1.4 (p=0.0001) % | > 10000 | – | 74.6% | – | – | – |
